Data as given in patent US10064890B2, “Amorphous calcium carbonate for the treatment of calcium malabsorption and metabolic bone disorders” (AMORPHICAL LTD, priority 2011, dated 2018).
Structures can show the parent of a compound that is named as a salt. Marks after values point to notes of the source that are not given here.

How the values were obtained:
[1] = tested on: ovariectomized (OVX) rat model; experiment: Trial 7: histomorphometry of un-decalcified proximal tibia sections; assay type: in vivo, Sprague Dawley rats; conditions: for BFR/BS / MAR / MS/BS: dynamic (calcein); for BFR/BS / MAR / MS/BS / BV/TV / Tb. N / Tb. Sp / Tb. Th: OVX rats; for BV/TV / Tb. N / Tb. Sp / Tb. Th: structural, 90 days
Method: (§1) All rats were sacrificed by CO2.
Right tibias were removed from the formaldehyde solution and dehydrated through an ethanol gradient, cleared using xylene (24250521, Bio-Lab Ltd. Haifa, Israel), and infiltrated with 80% methylmethacrylate (MMA; M5599, Sigma Aldrich, Rehovot, Israel)+20% dibutyl phthalate (DBP; 61-5062, Merck Ltd, Hohenbrunn, Germany) for 3 days at 4° C. Specimens were then transferred to MMA+DBP+Benozoyl peroxide (617008, Merck Ltd, Hohenbrunn, Germany) solution for another 6 days infiltration at 4° C. Following infiltration procedure, specimens were embedded in MMA+DBP+2.5% Benozoyl peroxide under a temperature gradient (from 38° C. to 50° C. over a period of 4 days). Mid-sagittal (4 μm) un-decalcified sections from each specimen were cut using a Lecia RM 2025 microtome (Lecia Instruments Ltd, Petach Tikva, Israel) connected to tungsten carbide knifes (Disposable blade; TC65, Rhenium Inc. Bet-Nekufa, Israel). Most sections were stained with McNeal's tetrachrome for structural histomorphometry. The remaining sections were left unstained for dynamic histomorphometry.
Measurement of both structural and dynamic histomorphometry of the proximal tibia metaphisyes were obtained using a semi-automatic analysis system (Bioquant OSTEO, ver. 7.20.10, BIOQUANT Image Analysis Corporation Nashville, USA) which is connected to a microscope (Nikon Optiphot 2, Kingston, England) equipped with fluorescent light source.

[2] = tested on: ovariectomized (OVX) rat model; experiment: Trial 7: micro-CT of distal femur and 4th lumbar vertebra; conditions: for Tb. N / Tb. Sp / Tb. Th: OVX rats, 90 days; for DA: sham group lower than the OVX group by / SMI: sham group lower than the OVX group by / TBPf: sham group lower than the OVX group by: 4th-lumbar vertebra, difference from sham; for trabecular bone region in μCT three-dimensional reconstruction: distal femur and 4th vertebra, FIG. 7, in comparison to the Sham; for trabecular femoral BMD: Sham group higher compared to the OVX group by: femur, difference from Sham
Method: In the study, five groups of rats were tested (4 ovariectomized and 1 sham). The OVX animals were fed with special food mixtures in the form of pellets from four different calcium sources: commercial crystalline calcium carbonate served as control (mix A), natural ACC (Gastrolith powder) (mix B), synthetic ACC (comprising trace amounts of phospho-serine) (mix C), and commercial crystalline calcium citrate (mix D). Sham group was administrated with the same food as the control. Pellets from all four mixtures contained ˜0.5% elemental calcium as confirmed by atomic absorption apparatus (Varian AA240, Palo Alto, Calif., USA) and described in Table 19 with no added vitamin D, except for the amounts found in the original food pellets (22 IU vitamin D/g).
For the administration of the different calcium sources, special food pellets containing were prepared. Low calcium rodent pellets containing 0.02% calcium (Rat chow #TD95027 Harlan Inc., Jerusalem, Israel) was finely grounded and separately mixed with four different calcium sources. […] Every mix was separately pelleted and kept in a sealed bag at room temperature.
Rats were randomly assigned and operated according to their assigned five groups: Sham (sham-Ovariectomized) fed with mix A, and four other groups were ovariectomized (OVX) using a bilateral dorsal approach according to Lasota and Danowska-Klonowska (2004) Rocz Akad Med Bialymst 49 Suppl 1:129-131, and divided to OVX Control (fed with mix A), OVX Gast (fed with mix B), OVX ACC (fed with mix C) and OVX Citrate (fed with mix D). Following operation, rats were provided a 7 days recovery period under the same conditions as the acclimation period, standard laboratory diet ad-libitum and de-ionized water containing 1.5 ml/400 ml Dipyrone (Vitamed Ltd, Binyamina, Israel), and 1 mg/kg Enrofloxacin (Buyer Ltd. Leverkusen, Germany).
At the end of the recovery period the rats were group-housed in 47 cages (2 rats/cage) according to the group assignment, under the same controlled room conditions as described above. The assigned supplemental pellets and de-ionized water were provided ad-libitum during the entire treatment period (90 days). […] For dynamic histomorphometric analysis fluorochrom dye Calcein (20 mg/kg body mass; Sigma-Aldrich, Israel) was IP injected to all rats at days 76 and 86. On day 90, rats were individually housed in metabolic cages and deprived from food and water for 18 h. Urine was collected from each metabolic funnel and was stored at −80° C. for future analysis of bone resorption biochemical marker at end of the experiment (Time 90). Immediately after urine sampling, serum samples were extracted for evaluation of formation biochemical marker of day 90 and stored in the same manner as described at day 0. All rats were sacrificed by CO2. Right femurs and 4th lumbar vertebras were dissected, wrapped with gaze pads soaked with saline buffer and kept in −80° C. for measurement of bone micro-CT scan. The 5th lumbar vertebras were stored in the same conditions as the right femurs for mechanical testing. Right tibias were dissected and placed immediately for 24 h at 4° C. in 3.7% formaldehyde solution (F1636, Sigma-Aldrich, Israel) for structural and dynamic histomorphometric measurements.
Trabecular and cortical bone microarchitecture of right femurs and 4th lumbar vertebras were analyzed using a μCT scanner (Skyscan 1174, Kartuizersweg Kontich, Belgium).

[3] = tested on: ovariectomized (OVX) rat model; experiment: Trial 7: mechanical strength of the 5th lumbar vertebra (compression test); assay type: in vivo, Sprague Dawley rats
Method: as §1
Mechanical properties (Ultimate force, Energy to ultimate force, Toughness and Energy to yield) were obtained from the compression tests of 5th lumbar vertebral body (L5). Calculation of the material properties were performed by measuring the height of the vertebral body and the average of caudal and cranial diameters using a caliper. Cross sectional area (CSA) and bone volume (BV) were obtained by μCT scanning that covered the entire bone including both trabecular and cortical shell.

[4] = tested on: ovariectomized (OVX) rat model; experiment: Trial 7: bone turnover biochemical markers (urine DPD, serum OC) by EIA; assay type: in vivo, Sprague Dawley rats; conditions: day 90, OVX rats
Method: as §1
Serum Osteocalcin (OC) concentration was determined by EIA kit (#BT-490, Biomedical Technologies Inc. Stoughtone, USA) following a 1:10 serum dilution.
Urinary Deoxypyridinoline (DPD) concentration was determined by commercial EIA kit (#8007, Qudiel Inc. San Diego, USA) following a 1:50 dilution. DPD levels were normalized to Creatinine levels (#8009, Qudiel Inc. San Diego, USA).

[5] = Trial 1: serum calcium pharmacokinetics after single oral capsule of 45Ca-labeled calcium carbonate; set-up: species or system Wistar rats; conditions: rat, in vivo
Method: (§2) Twenty-six 2 month-old male Wistar rats, weighing 240±15 g, were orally administered with a single gelatin capsule containing either ACC (amorphous calcium carbonate) or CCC (crystalline calcium carbonate) intrinsically labeled with ^45Ca, followed by measurements of calcium fractional absorption in serum and calcium excretion.
All animals were treated according to the Israel Animal Welfare Act under the supervision of the Ben-Gurion University Animal Care and Use program. Fifty-one two month-old male Wistar rats (Harlan-Teklad, Jerusalem, Israel), weighing 240±15 g, were randomly housed in 12 stainless steel cages in an environmentally-controlled room (23° C. temperature, 12:12 h light:dark cycle). The rats were fed laboratory rat chow pellets adequate in nutrients ad libitum (Koffolk, Petah-Tikva, Israel) and had free access to water for 48 h. Four days before the beginning of the experiment, the regular diet was replaced with a low calcium diet containing 0.24±0.05% calcium (0.675±0.05% phosphate), specially prepared by mixing two food types containing, respectively, 0.01% calcium (0.3% phosphate; Harlan-Teklad) and 1% calcium (0.8% phosphate; Koffolk). The two food types were separately ground in a mill to yield two powders which were dry mixed in a ratio of 4:1, respectively, until fine homogenization. The homogenized powder was extruded to form new food pellets.
Seventeen hours prior to capsule administration, the rats were weighed and blood samples were taken (baseline). The rats were then placed into individual metabolic cages and deprived of food and water until 3 h post-capsule administration. Three and 24 h post-dosing, ˜10 g of low calcium food pellets (0.01% calcium; Harlan-Teklad) were given to each rat. Distilled water was allowed ad libitum starting three h post-capsule administration.
Each rat was lightly sedated for 30 seconds with isoflurane (Minrad) diluted 1:4 (v:v) with propylene glycol (BioLab). A single capsule containing a specific calcium carbonate preparation (i.e. CCC, ACC, or ACC-C; n=17 for each group) was administered intragastrically to each of the experimental rats using a stainless steel rat administration syringe (Harvard Apparatus).
Blood samples of […] were taken from each rat's tail vein 17 h prior to capsule administration (time 0) and 2, 3, 6, 10, 24 and 34 h post-administration. The blood samples were immediately centrifuged for 10 minutes at 3000 g using a tabletop centrifuge (Hettich Zentrifugen, Bach, Switzerland). Duplicate samples (30 μl) of the supernatant serum were transferred into plastic vials containing scintillation liquid (Zinsser Analytic, Berkshire, UK) and radioactivity was measured using a liquid scintillation counter (Tri-Carb 2100TR, PerkinElmer, Boston, Mass.). Plasma radioactivity from the given dose were normalized according to the measured radioactivity and specific radioactive dose that each rat received [(serum cpm×100)/(total cpm×sample volume)].
Non-compartmental analysis of an individual rat's calcium concentration versus time data was performed using WinNonLin 5.2 software (Pharsight, Mountain View, Calif.).

[6] = tested on: ovariectomized (OVX) rat model; experiment: Trial 6: micro-CT of distal femur and 4th lumbar vertebra, ACC with or without alendronate; assay type: in vivo, Sprague Dawley rats; conditions: for SMI / TBPf / Tb. N / Tb. Sp / Tb. Th: OVX rats, 4 months treatment
Method: The inventors have conducted a study aiming to evaluate the effects of Amorphous Calcium Carbonate (ACC) on bone mineral density and bone fraction in metabolic bone disorders, and specifically osteoporosis as presented in the ovariectomized (OVX) rat model wherein the ACC is administered in combination with a standard medication for osteoporosis. In the present trial, five groups of rats were tested (4 OVX and 1 sham). Following operation, all rats were left untreated (fed with standard laboratory diet) to develop osteopenia for a period of 2 months. […] In addition, the animals were i.v injected (3 times/week) with either saline or 2 μg/kg alendronate (ALN) according to their group assignment, as described in Table 16.
A CCC mix containing 1% elemental calcium from crystalline calcium carbonate (Socal® Precipitated Calcium Carbonate), and an ACC mix containing 1% elemental calcium from stable amorphous calcium carbonate (containing 1% phosphoserine and 2% Citrate; Amorphical Ltd., Beer-Sheva, Israel).
Following 2 months, rats started treatment according to their assignment as described in Table 16 for a period of 4 months. […] Food consumption and body weight were recorded weekly (Table 17). At the end of the treatment period, all rats were sacrificed by CO2.

[7] = Trial 1: calcium retention (intake minus feces and urine excretion); assay type: in vivo, Wistar rats; conditions: 34 h feces and urine collection, rats
Method: as §2
Feces and urine were collected during the 17 h starvation phase during the acclimation period (baseline) and during the entire 34 h of the experiment to evaluate calcium. Samples of urine (500 μL) were transferred into plastic vials filled with scintillation liquid. Feces were dried overnight at 70° C. in an oven. The samples were ground in a mortar until fine homogenization. Feces samples (200 mg) were placed into 5 ml of 1 N NaOH solution (Gadot, Netanya, Israel), incubated for 3 hours at 80° C. and centrifuged for 10 minutes at 3,600 g. Duplicate samples of the supernatant (30 μL) were transferred into plastic vials containing scintillation liquid. Radioactivity of the urine and feces samples was measured using a liquid scintillation counter. Retention values were calculated by subtracting the radioactivity measured in the feces and urine from the given dose […].

Compound | trabecular bone fraction and condensed trabeculas values lower compared to the Sham (average) [1] [%] | trabecular separation higher in comparison to Sham [1] [%] | BFR/BS [1] | MAR [1] [μm/day] | MS/BS [1] | BV/TV [1] | Tb. N [1] | Tb. Sp [1] | Tb. Th [1] | Tb. N ([2]; 4th lumbar vertebra) | Tb. Sp ([2]; 4th lumbar vertebra) | Tb. Th ([2]; 4th lumbar vertebra) [μm] | DA: sham group lower than the OVX group by [2] [%] | SMI: sham group lower than the OVX group by [2] [%] | TBPf: sham group lower than the OVX group by [2] [%] | trabecular bone region in μCT three-dimensional reconstruction [2] | Tb. N ([2]; distal femur metaphysis) | Tb. Sp ([2]; distal femur metaphysis) | Tb. Th ([2]; distal femur metaphysis) | trabecular femoral BMD: Sham group higher compared to the OVX group by [2] [%] | also measured
O=C([O-])[O-].[Ca+2] [Control, calcium carbonate] | 55 | 130 | 0.164^a μm^2/μm/day | 1.30 | 8.31^a % | 12.8^b % | 2.5^b mm^−1 | 296^b μm | 47.1^a μm | 1.57^b mm^−1 | 254^b μm | 87.5 | 22 | 43 | 91 | lowest trabecular bone region | 2.2^b mm^−1 | 248^b μm | 29.0^b μm | 64 | BV/TV and Tb.N lower on average in comparison to the Sham ([2]; distal femur): 65%; BV/TV and Tb.N lower on average in comparison to the Sham ([2]; vertebra): 60%; mechanical strength properties lower in comparison to Sham (average) [3]: 41%; DPD (urine deoxypyridinoline resorption marker) [4]: 36.65^be nmol/mmol Cr; OC (serum osteocalcin formation marker) [4]: 14.8^a ng/ml
amorphous calcium carbonate [ACC] | – | – | – | – | – | – | – | – | – | – | – | – | – | – | – | – | – | – | – | – | AUC∞ [5]: 134.5 ± 7.0 ^b μg × h/mL; Cmax [5]: 8.1 ± 0.8 ^b μg/mL; Tmax [5]: 2.8 ± 0.2 ^a h
O=C(O)CC(O)(CC(=O)O)C(=O)O [Citrate, calcium citrate] | 55 | 148 | 0.159^a μm^2/μm/day | 1.40 | 8.25^a % | 12.8^b % | 2.3^b mm^−1 | 318^b μm | 53^b μm | 1.59^b mm^−1 | 262^b μm | 86.6 | 22 | 43 | 91 | lowest trabecular bone region | 2.4^b mm^−1 | 226^bd μm | 29.1^b μm | 63 | trabecular thickness higher compared to Control [1]: 13%; MS/BS lower from the ACC group ([1]; Citrate vs ACC): 26%; bone formation rate lower from ACC ([1]; Citrate vs ACC): 26%; MS/BS lower from the Gast group ([1]; Citrate vs Gast): 29%; bone formation rate lower from Gast ([1]; Citrate vs Gast): 28%; trabecular bone fraction and its number, Citrate compared with Control ([2]; micro-CT): No significant differences; mechanical strength properties lower in comparison to Sham (average) [3]: 40%; DPD (urine deoxypyridinoline resorption marker) [4]: 43.55^e nmol/mmol Cr; OC (serum osteocalcin formation marker) [4]: 15.7^a ng/ml
O=C([O-])[O-].[Ca+2] [CCC, crystalline calcium carbonate] | – | – | – | – | – | – | – | – | – | – | – | – | – | – | – | – | – | – | – | – | AUC∞ [5]: 109.7 ± 6.4 ^a μg × h/mL; Cmax [5]: 5.8 ± 0.07 ^a μg/mL; Tmax [5]: 3.0 ± 0.3 ^a h; SMI ([6]; 4th lumbar vertebra): 1.62; TBPf ([6]; 4th lumbar vertebra): 8.5 mm^−1; Tb. N ([6]; 4th lumbar vertebra): 1.75 mm^−1; Tb. Sp ([6]; 4th lumbar vertebra): 374 μm; Tb. Th ([6]; 4th lumbar vertebra): 98.4 μm; trabecular bone region in μCT three-dimensional reconstruction ([6]; distal femur and 4th vertebra, FIG. 5, compared to CCC / third group): lowest trabecular bone region; SMI ([6]; distal femur metaphysis): 1.66; TBPf ([6]; distal femur metaphysis): 7.6 mm^−1; Tb. N ([6]; distal femur metaphysis): 1.5 mm^−1; Tb. Sp ([6]; distal femur metaphysis): 682 μm; Tb. Th ([6]; distal femur metaphysis): 110 μm; retention of the received dose [7]: 48.5±1.3%
